This note sets out measurements from patent EP0353668A2, “Process for the preparation of N,N-bis(alkoxyalkyl) diamides of pyridine-2,4-dicarboxylic acid” (HOECHST AKTIENGESELLSCHAFT, priority 1988, dated 1990).

The data set in a line: in vivo. On the set-up: species or system Wistarratten. As to the method: Es wurde festgestellt, daß die Verbindungen der Formel I außergewöhnlich gute enterale Resorbierbarkeiten aufweisen. Die Resorbierbarkeit wurde an Wistarratten untersucht, denen N,N′-Bis-(2-methoxy ethyl)pyridin-2,4-dicarbonsäureamid intragastral verabreicht wurde. Der Serumspiegel sank in den ersten Stunden nach Verabreichung der Substanz ab und ereichte nach ca. 5 Stunden ein nur noch leicht abfallendes Platteau.
Weibliche Wistarratten von ca. 150 g Körpergewicht erhalten 50 mg/kg N,N′-Bis(2-methoxyethyl)pyridin-2,4-dicarbonsäurediamid mittels Schlundsonde intragastral verabreicht. Es werden nach 0; 0,25; 0,5; 1; 3; 4; 5; 6; 8 und 14 Stunden jeweils 4 Ratten narkotisiert und über die Vena Cava entblutet. Das Blut wird sofort zentrifugiert und N,N′-Bis(2-methoxyethyl)pyridin-2,4-dicarbonsäurediamid mit Ether aus dem Serum extrahiert. Nach Verdampfen des Ethers wird der Rückstand in […] Fliessmittel aufgenommen. Das Fliessmittel besteht aus 0,05 M Phosphorsäure und Acetonitril (4:1). Von dieser Probe werden 50 µl in eine HPLC-Säule injiziert. Die Detektion erfolgt bei UV 200 nm und einer Retentionszeit von 2,2 min. Die Ergebnisse sind in der Tabelle 1 und der Figur 1 dokumentiert. Tabelle 1

On to `COCCNC(=O)c1ccnc(C(=O)NCCOC)c1` [N,N′-Bis(2-methoxyethyl)pyridin-2,4-dicarbonsäurediamid], for which the “Zeit bis der Serumspiegel ein nur noch leicht abfallendes Platteau erreichte” value is given as “ca. 5 Stunden” and the “enterale Resorbierbarkeit” value was “gute Resorbierbarkeit”. Further, where the note is “rat, po, 50 mg/kg”, the concentration at 0.25 h is 38700 ng/mL, the concentration at 0.5 h was 32400 ng/mL, the concentration at 1 h worked out at 15600 ng/mL and the concentration at 3 h amounted to 700 ng/mL. For the setting “rat, po, 50 mg/kg”, this compound yielded a concentration at 4 h of 3300 ng/mL, a concentration at 5 h of 500 ng/mL, a concentration at 6 h of 600 ng/mL and a concentration at 8 h of 500 ng/mL. Where the note is “rat, po, 50 mg/kg”, the concentration at 14 h was 300 ng/mL.
